Literature values in paper PMC11984905, “Chiral Switch of Gadopiclenol: New Standards in MRI Probes” (Advanced Science, 2025).
Read-outs that look alike come from different tables or passages of the source. Marks after values point to notes of the source that are not given here.

Columns and labels:
[1] = pH 7.4, 0.15 M NaCl, 25 °C; cited from earlier work
[2] = 0.1 M KCl; cited from earlier work
[3] = 0.1 M KCl; cited from earlier work; remark: listed apart in the source
[4] = 25 °C, cited from earlier work
[5] = cited from earlier work; for pGd: [Gd^3+]tot = 1 µM, [L]tot = 10 µM; for pGd / logK^c GdL: pH 7.4, calculated from literature constants
[6] = set-up: method as in earlier work; conditions: stability constant of the Na+ complex; cited from earlier work
[7] = 0.1 M KCl; cited from earlier work; remark: listed apart in the source

O=C(O)CN1CCN(CC(=O)O)CCN(CC(=O)O)CCN(CC(=O)O)CC1 [DOTA]
k d at pH = 7.4 [1]: 7.3 × 10^−14 s^−1
logK CuL [2]: 22.72
logKCuH2L [2]: 3.92
logKCuHL [2]: 4.45
logK CaL [3]: 16.37
logKCaHL [3]: 3.60
logK1^H ([4]; 0.1 M KCl): 11.14
logK2^H ([4]; 0.1 M KCl): 9.69
logK3^H ([4]; 0.1 M KCl): 4.85
logK4^H ([4]; 0.1 M KCl): 3.95
ΣlogKi^H ([4]; 0.1 M KCl): 29.63
logK1^H ([4]; 0.1 M Me4NCl): 11.45
logK2^H ([4]; 0.1 M Me4NCl): 9.64
logK3^H ([4]; 0.1 M Me4NCl): 4.60
logK4^H ([4]; 0.1 M Me4NCl): 4.11
logK5^H ([4]; 0.1 M Me4NCl): 2.29
ΣlogKi^H ([4]; 0.1 M Me4NCl): 32.09
logK1^H ([4]; 0.15 M NaCl): 9.14
logK2^H ([4]; 0.15 M NaCl): 9.21
logK3^H ([4]; 0.15 M NaCl): 4.48
logK4^H ([4]; 0.15 M NaCl): 4.03
logK5^H ([4]; 0.15 M NaCl): 1.99^d)
ΣlogKi^H ([4]; 0.15 M NaCl): 28.85
logKGdHL ([5]; 0.1 M KCl): 1.15
logK GdL ([5]; 0.1 M Me4NCl, 25 °C): 25.6
logK GdL ([5]; 0.1 M NaCl, 25 °C): 24.7
pGd ([5]; 0.1 M Me4NCl, 25 °C): 20.24
pGd ([5]; 0.1 M NaCl, 25 °C): 22.09
*logKGd(H2L) ([5]; diprotonated out-of-cage intermediate, 0.15 M NaCl, 25 °C): 6.07^f)
logK^c GdL ([5]; 0.1 M Me4NCl, 25 °C): 19.29
logK^c GdL ([5]; 0.1 M NaCl, 25 °C): 21.14
logKNa(L) [6]: 4.38
logK ZnL [7]: 18.7
logKZnH2L [7]: 3.96
logKZnHL [7]: 5.33
